Assay results: article PMC10331583, “Control of fibrosis with enhanced safety via asymmetric inhibition of prolyl‐tRNA synthetase 1” (EMBO Molecular Medicine, 2023)
Values joined by “and” are separate entries in the source; they are usually repeats but may differ in a detail not shown here. Identical values can stand only once. “Also recorded” adds a separate entry of the source.

Assays:
PARS1 = target: T1, PARS1 (Homo sapiens, UniProt P07814); experiment: In vitro prolylation assay; type: biochemical; details: for mode of PARS1 inhibition: IC50 at different proline and ATP concentrations
T1 construct: His‐PARS1 (1001–1,512 aa); His; made in house; host or cells: Escherichia coli
T1 sequence (P07814 1001-1512 limits assumed): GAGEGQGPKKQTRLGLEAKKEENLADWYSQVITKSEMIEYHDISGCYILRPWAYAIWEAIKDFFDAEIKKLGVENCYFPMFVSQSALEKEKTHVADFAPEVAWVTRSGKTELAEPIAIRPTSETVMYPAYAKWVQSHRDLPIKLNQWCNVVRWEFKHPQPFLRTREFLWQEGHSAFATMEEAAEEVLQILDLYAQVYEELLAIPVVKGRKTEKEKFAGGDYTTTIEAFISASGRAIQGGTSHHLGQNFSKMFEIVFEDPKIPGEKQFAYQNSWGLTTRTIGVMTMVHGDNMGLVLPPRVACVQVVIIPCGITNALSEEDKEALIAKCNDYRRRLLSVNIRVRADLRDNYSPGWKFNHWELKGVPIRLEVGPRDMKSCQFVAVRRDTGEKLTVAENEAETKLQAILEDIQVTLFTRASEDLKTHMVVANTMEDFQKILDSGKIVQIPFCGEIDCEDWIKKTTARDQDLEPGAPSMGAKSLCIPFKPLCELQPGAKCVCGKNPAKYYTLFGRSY
Procedure: The enzyme reaction was initiated by the addition of 100 nM purified His‐PARS1 (1001–1,512 aa). After 5 min, the reaction mixture was quenched on Whatman filter paper presoaked with 5% trichloroacetic acid (TCA). The filter papers were washed three times in 5% TCA for 10 min at 4°C and once in 100% ethanol for 10 min. The filter papers were dried, and radioactivity was quantified using liquid scintillation counter (LSC).
After 1 h, the reaction mixture was quenched on Whatman filter paper presoaked with 5% TCA. The filter papers were washed three times in 5% TCA for 10 min at 4°C and once in 100% ethanol for 10 min. The filter papers were dried, and radioactivity was quantified using LSC.

LX2 cells = experiment: Determination of collagen level using 3D culture (hydroxyproline); type: cell-based; details: Homo sapiens, LX-2, read-out: IC50 for collagen level
Procedure: To screen HF derivatives, LX2 cells were resuspended with growth medium containing 20% Matrigel (BD Bioscience, 354234) and then seeded at 1 × 10^4 cells/well on a Lipidure‐coated U bottom 96‐well plate (NOF, LCU96). After 48 h, the cells were treated with TGF‐β1 (Sigma‐Aldrich, T7039) for 24 h to mimic fibrotic conditions and then additionally incubated in the presence of various concentrations of test compounds for 48 h. To determine the level of collagen, hydroxyproline levels were measured following the manufacturer's instructions (BioVision, K555‐100). Briefly, after the cells were incubated with HCl for 3 h at 120°C, the soluble supernatant was prepared using activated charcoal (Sigma‐Aldrich, 161551). The samples were dried for 3 h at 60°C and then, incubated with chloramine T mixture for 10 min and Ehrlich's reagent for 90 min at 60°C. The level of hydroxyproline was determined by measuring the absorbance at 540 nm.

C57BL/6 mice = experiment: Bleomycin‐induced lung fibrosis, therapeutic model 1 (compounds from a week after bleomycin); type: in vivo; details: for BALF total cell count, average / BALF total cell count, single animal / Collagen contents, average / Collagen contents, single animal / Fibrotic area, average / Fibrotic area, single animal / SpO2, average / SpO2, single animal: BLM +; for collagen deposition, Masson's trichrome staining: lung tissue (Fig 1H and I); for fibrotic properties: model 1, drug administration from day 7
Procedure: To examine therapeutic efficacy of DWN12088, all experiments were conducted following the international guidelines on the ethical use of experimental animals and approved by the Institutional Animal Care and Use Committee of Daewoong Pharmaceutical (IACUC‐21‐014). C57BL/6 mice (7–8‐week‐old, male, obtained from Orient Bio) were anesthetized with Zoletil and injected intratracheally with 100 μl bleomycin (2 units/kg) (Merck, B8416) to induce lung fibrosis. A group of disease‐free mice (“untreated”) were injected with PBS instead of bleomycin. After a week, mice treated with bleomycin were randomized to (i) vehicle (saline), (ii) HF 0.05 mg/kg, (iii) HF 0.1 mg/kg, and (iv) DWN12088 10 mg/kg groups (n = 5 for each group) according to their body weight. The drugs were orally administered once daily for 2 weeks, and then the outcome was analyzed. For the experiments testing the effect of the compounds 2 weeks after bleomycin challenge, the experiment was approved by IACUC of Daewoong Pharmaceutical (IACUC‐22‐009). The experimental procedures were performed following the methods described previously, with the exception that the compounds were administered 2 weeks after bleomycin challenge. The experiments were conducted as non‐blind tests.
Mice were anesthetized with Zoletil for 10 min, and a portable mouse pulse oximeter (Veterinary Pulse Oximeter, Berry Electronic) was placed on each mouse's body. The measurements were continued to allow the recording of 3 min of a stable signal.
The collagen contents of lung tissues were measured using Sircol™ soluble collagen assay (Biocolor Ltd., S1000) following the manufacturer's instructions. Briefly, the right lung lobes were homogenized, and collagen was solubilized in 0.5 M acetic acid. Tissue extracts were incubated with Sirius red dye, and the absorbance was determined at 540 nm using a spectrophotometer. The amount of collagen was expressed relative to the wet weight of the tissues.
The lung tissues were fixed in paraformaldehyde and embedded in paraffin. The paraffin‐embedded blocks were sectioned at 4 μm and then mounted onto glass slides. After deparaffinization and rehydration, the slides were fixed with Bouin's solution (Sigma Aldrich, HT10132‐1L) for 1 h. Then, the slides were incubated with hematoxylin (Sigma Aldrich, MHS16‐500ML), Biebrich Scarlet (Sigma Aldrich, B‐6008) and acid fuchsin (Sigma Aldrich, A‐3908), phosphomolybdic (DAEJUNG, 6531‐4105) and phosphotungstic acid (DAEJUNG, 6539‐4105), aniline blue (DAEJUNG, 1087‐4125), and then 1% (v/v) acetic acid (DUKSAN, UN2789). After dehydration, the slides were mounted onto cover slips and scanned using slide scanner (3D HISTECH, Pannoramic MIDI). Fibrotic area of the images was quantified by using Image J plugin, color deconvolution 2.

[1] = test system: WI‐26 VA4 cells stably expressing PARS1 FA/EA/RL mutant; details: human, 72 h
in vitro = details: human, Cytotoxicity
[2] = % of control (single replicates, Experiment #1-#4)

O[C@H]1CCCN[C@@H]1CCCn1cnc2c(Cl)c(Cl)ccc21 [DWN12088]
IC50 (PARS1; IC50, 1 μM Pro, 5 mM ATP): 76.1 nM | IC50 (PARS1; IC50, 10 μM Pro, 5 mM ATP): 397 nM | IC50 (PARS1; IC50, 100 μM Pro, 2.5 mM ATP): 5940 nM | IC50 (PARS1; IC50, 100 μM Pro, 5 mM ATP): 6460 nM | IC50 (PARS1; IC50, 100 μM Pro, 10 mM ATP): 3000 nM | mode of PARS1 inhibition (PARS1): proline‐competitive and ATP‐uncompetitive; also recorded: competitive inhibitor for proline, and a mixed or uncompetitive inhibitor for ATP | IC50 (LX2 cells): 43.1 nM | efficacy (SpO2, BALF total cell count, collagen contents) (C57BL/6 mice; 10 mg/kg oral once a day, 2 weeks, versus nintedanib 60 mg/kg and pirfenidone 200 mg/kg (Fig EV4D–F)): comparable with nintedanib and pirfenidone | BALF total cell count, average (C57BL/6 mice; 10 mg/kg): 8.46 x105 cells | BALF total cell count, single animal (C57BL/6 mice; 10 mg/kg): 9.8 x105 cells and 8.9 x105 cells and 6.4 x105 cells and 7.5 x105 cells and 9.7 x105 cells | Collagen contents, average (C57BL/6 mice; 10 mg/kg): 213.8 μg/right lung | Collagen contents, single animal (C57BL/6 mice; 10 mg/kg): 175 μg/right lung and 275 μg/right lung and 198 μg/right lung and 165 μg/right lung and 256 μg/right lung | Fibrotic area, average (C57BL/6 mice; 10 mg/kg): 173.8 % of control | Fibrotic area, single animal (C57BL/6 mice; 10 mg/kg): 230.8 % of control and 181.2 % of control and 123.5 % of control and 151.5 % of control and 182.0 % of control | SpO2, average (C57BL/6 mice; 10 mg/kg): 81.0% | SpO2, single animal (C57BL/6 mice; 10 mg/kg): 87% and 81% and 88% and 72% and 77% | collagen deposition, Masson's trichrome staining (C57BL/6 mice): decreased collagen deposition in the interstitial spaces | fibrotic properties (C57BL/6 mice): significantly reduced fibrotic properties | in vivo effective dose of DWN12088 relative to that of HF (C57BL/6 mice; mouse, in vivo): about 100 times

O=C(CC1NCCCC1O)Cn1cnc2cc(Br)c(Cl)cc2c1=O (stereo not shown) [HF, Halofuginone, reference compound]
IC50 (PARS1; IC50, 1 μM Pro, 5 mM ATP): 24.5 nM | IC50 (PARS1; IC50, 10 μM Pro, 5 mM ATP): 46.2 nM | IC50 (PARS1; IC50, 100 μM Pro, 2.5 mM ATP): 137 nM | IC50 (PARS1; IC50, 100 μM Pro, 5 mM ATP): 103 nM | IC50 (PARS1; IC50, 100 μM Pro, 10 mM ATP): 101 nM | mode of PARS1 inhibition (PARS1): proline‐competitive and ATP‐uncompetitive | SpO2 (C57BL/6 mice; 0.05 mg/kg oral once a day, 2 weeks (Figs 1E and EV4G)): did not show an improvement in SpO2 | BALF total cell count, average (C57BL/6 mice; 0.05 mg/kg): 10.46 x105 cells | BALF total cell count, single animal (C57BL/6 mice; 0.05 mg/kg): 10 x105 cells and 12 x105 cells and 9.3 x105 cells and 11 x105 cells | Collagen contents, average (C57BL/6 mice; 0.05 mg/kg): 308.0 μg/right lung | Collagen contents, single animal (C57BL/6 mice; 0.05 mg/kg): 314 μg/right lung and 298 μg/right lung and 320 μg/right lung and 264 μg/right lung and 344 μg/right lung | Fibrotic area, average (C57BL/6 mice; 0.05 mg/kg): 275.3 % of control | Fibrotic area, single animal (C57BL/6 mice; 0.05 mg/kg): 303.9 % of control and 169.0 % of control and 380.1 % of control and 194.5 % of control and 329.1 % of control | SpO2, average (C57BL/6 mice; 0.05 mg/kg): 71.2% | SpO2, single animal (C57BL/6 mice; 0.05 mg/kg): 72% and 64% and 66% and 76% and 78% | BALF total cell count, average (C57BL/6 mice; 0.1 mg/kg): 7.38 x105 cells | BALF total cell count, single animal (C57BL/6 mice; 0.1 mg/kg): 7.2 x105 cells and 9 x105 cells and 5.1 x105 cells and 7.4 x105 cells and 8.2 x105 cells | Collagen contents, average (C57BL/6 mice; 0.1 mg/kg): 231.8 μg/right lung | Collagen contents, single animal (C57BL/6 mice; 0.1 mg/kg): 254 μg/right lung and 195 μg/right lung and 275 μg/right lung and 201 μg/right lung and 234 μg/right lung | Fibrotic area, average (C57BL/6 mice; 0.1 mg/kg): 171.2 % of control | Fibrotic area, single animal (C57BL/6 mice; 0.1 mg/kg): 180.4 % of control and 138.3 % of control and 115.6 % of control and 249.0 % of control and 172.5 % of control | SpO2, average (C57BL/6 mice; 0.1 mg/kg): 80.0% | SpO2, single animal (C57BL/6 mice; 0.1 mg/kg): 78% and 81% and 85% and 82% and 74% | collagen deposition, Masson's trichrome staining (C57BL/6 mice): decreased collagen deposition in the interstitial spaces | fibrotic properties (C57BL/6 mice): significantly reduced fibrotic properties | Cytotoxicity HillSlope (best-fit value) [1]: -0.8245 | Cytotoxicity LogIC50 (best-fit value) [1]: 1.805 | activity at 72 h, 0.001 µM (in vitro; [2]): 107% | activity at 72 h, 0.01 µM (in vitro; [2]): 96.3% | activity at 72 h, 0.03 µM (in vitro; [2]): 71.4% | activity at 72 h, 0.3 µM (in vitro; [2]): 34.8% | activity at 72 h, 0.001 µM (in vitro; % of control, average): 106% | activity at 72 h, 0.003 µM (in vitro; % of control, average): 109% | activity at 72 h, 0.03 µM (in vitro; % of control, average): 76.1% | activity at 72 h, 0.1 µM (in vitro; % of control, average): 41.8% | activity at 72 h, 1 µM (in vitro; % of control, average): 20%
